Key:
[1] = test system: P70S6K (Thr389) phosphorylation (mTORC1) in MDA-MB-468 cells; assay: Cell based AlphaLISA assay, mTOR kinase cellular assay: inhibition of p-P70S6K (T389) in MDA-MB-468 cells; settings: Homo sapiens, read-out: pIC50 for Inhibition of mTORC1 and mTORC2 Substarte Phosphorylation p-P70S6K-(T389) (converted)
Procedure: (§1) Cell Based AlphaLISA Assays for Determining IC50 For Inhibition of P-Akt (S473), P-4E-BP1 (T37/46), and P-P70S6K (T389) in MDA-MB-468 Cells
(§2) mTOR Kinase Cellular Assay
(§3) To measure functional activity of mTORC1 and mTORC2 in cells the phosphorylation of 4EBP1 (Thr37/46) and P70S6K (Thr389), and AKT1/2/3 (Ser473) was monitored using AlphaLisa SureFire Ultra Kits (Perkin Elmer). MDA-MB-468 cells (ATCC® HTB-132) were cultured in 96-well tissue culture plates and treated with compounds in the disclosure at concentrations varying from 0.017-1,000 nM for two to four hours at 37° C. Incubations were terminated by removal of the assay buffer and addition of lysis buffer provided with the assay kit. Samples were processed according to the manufacturer's instructions. The Alpha signal from the respective phosphoproteins was measured in duplicate using a microplate reader (Envision, Perkin-Elmer or Spectramax M5, Molecular Devices). Inhibitor concentration response curves were analyzed using normalized IC50 regression curve fitting with control based normalization.

[2] = test system: 4EBP1 (Thr37/46) phosphorylation (mTORC1) in MDA-MB-468 cells; assay: Cell based AlphaLISA assay, mTOR kinase cellular assay: inhibition of p-4E-BP1 (T37/46) in MDA-MB-468 cells; settings: Homo sapiens, read-out: pIC50 for Inhibition of mTORC1 and mTORC2 Substarte Phosphorylation p-4E-BP1-(T37/46) (converted)
Procedure: as §1, §2, §3

[3] = test system: AKT1/2/3 (Ser473) phosphorylation (mTORC2) in MDA-MB-468 cells; assay: Cell based AlphaLISA assay, mTOR kinase cellular assay: inhibition of p-Akt (S473) in MDA-MB-468 cells; settings: Homo sapiens, read-out: pIC50 for Inhibition of mTORC1 and mTORC2 Substarte Phosphorylation p-AKT1/2/3-(S473) (converted)
Procedure: as §1, §2, §3

[4] = test system: AsPC-1 (K-Ras G12D); assay: Potency assay: pERK; assay type: cell-based; settings: Homo sapiens, ASPC1, read-out: pERK EC50
[5] = test system: AsPC-1 (K-Ras G12D); assay: CellTiter-Glo cell viability assay; assay type: cell-based; settings: Homo sapiens, ASPC1, 120 h, read-out: AsPC-1 Cell Viability assay data IC50, K-Ras G12D, 5-day treatment
Procedure, shortened: (§4)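 Direct compound addition to plated cells; 5-day exposure; ~30 min RT equilibration; CellTiter-Glo luminescence. Normalization: (sample/avg DMSO)*100; 4-parameter logistic curve fit.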

[6] = test system: NCI-H358 (K-Ras G12C); assay: CellTiter-Glo cell viability assay; assay type: cell-based; settings: Homo sapiens, NCI-H358, 120 h, read-out: H358 Cell Viability assay data IC50, K-Ras G12C, 5-day treatment
Procedure, shortened: as §4

[7] = target: KRAS G12D (Homo sapiens, UniProt P01116+P62937, G12D); assay: Ras-Raf disruption / FRET / MOA assay (BRAF RBD); assay type: biochemical; settings: KRAS G12D FRET data IC50, Ras-Raf disruption, with Cyclophilin A
Procedure, shortened: (§5)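 Compound-induced Ras–Cyclophilin A ternary complex disrupting BRAF RBD binding, read as IC50 from reduced TR-FRET ratio relative to DMSO. Final: Ras-GMPPNP 12.5 nM, BRAF RBD 50 nM, Cyclophilin A 25 μM, top compound 30 μM (3-fold, 10 points); 3 h at 25 °C, then 1.5 h with detection antibodies.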

[8] = target: KRAS G12S (Homo sapiens, UniProt P01116+P62937, G12S); assay: Ras-Raf disruption / FRET / MOA assay (BRAF RBD); assay type: biochemical; settings: KRAS G12S FRET data IC50, Ras-Raf disruption, with Cyclophilin A
Procedure, shortened: as §5

[9] = target: KRAS G12V (Homo sapiens, UniProt P01116+P62937, G12V); assay: Ras-Raf disruption / FRET / MOA assay (BRAF RBD); assay type: biochemical; settings: KRAS G12V FRET data IC50, Ras-Raf disruption, with Cyclophilin A
Procedure, shortened: as §5

[10] = target: KRAS G13C (Homo sapiens, UniProt P01116+P62937, G13C); assay: Ras-Raf disruption / FRET / MOA assay (BRAF RBD); assay type: biochemical; settings: KRAS G13C FRET data IC50, Ras-Raf disruption, with Cyclophilin A
Procedure, shortened: as §5

[11] = target: KRAS G13D (Homo sapiens, UniProt P01116+P62937, G13D); assay: Ras-Raf disruption / FRET / MOA assay (BRAF RBD); assay type: biochemical; settings: KRAS G13D FRET data IC50, Ras-Raf disruption, with Cyclophilin A
Procedure, shortened: as §5

[12] = target: KRAS Q61H (Homo sapiens, UniProt P01116+P62937, Q61H); assay: Ras-Raf disruption / FRET / MOA assay (BRAF RBD); assay type: biochemical
Procedure, shortened: as §5

[13] = target: KRAS WT (Homo sapiens, UniProt P01116+P62937); assay: Ras-Raf disruption / FRET / MOA assay (BRAF RBD); assay type: biochemical; settings: KRAS WT FRET data IC50, Ras-Raf disruption, with Cyclophilin A
Procedure, shortened: as §5

[14] = target: NRAS G12C (Homo sapiens, UniProt P01111+P62937, G12C); assay: Ras-Raf disruption / FRET / MOA assay (BRAF RBD); assay type: biochemical; settings: NRAS G12C FRET data IC50, NRAS G12C
Procedure, shortened: as §5

[15] = target: NRAS Q61K (Homo sapiens, UniProt P01111+P62937, Q61K); assay: Ras-Raf disruption / FRET / MOA assay (BRAF RBD); assay type: biochemical
Procedure, shortened: as §5

[16] = target: NRAS Q61R (Homo sapiens, UniProt P01111+P62937, Q61R); assay: Ras-Raf disruption / FRET / MOA assay (BRAF RBD); assay type: biochemical
Procedure, shortened: as §5

[17] = target: NRAS WT (Homo sapiens, UniProt P01111+P62937); assay: Ras-Raf disruption / FRET / MOA assay (BRAF RBD); assay type: biochemical
Procedure, shortened: as §5

[18] = target: KRAS G12C (Homo sapiens, UniProt P01116+P62937, G12C); assay: Ras-Raf disruption / FRET / MOA assay (BRAF RBD); assay type: biochemical; settings: KRAS G12C FRET data IC50, Ras-Raf disruption, with Cyclophilin A
Procedure, shortened: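 TR-FRET read-out after 1.5 h with anti-His Eu-W1024 (10 nM) and anti-GST APC (50 nM), following 3 h at 25 °C of compound (top 30 μM, 3-fold, 10 points) with 25 μM Cyclophilin A, 12.5 nM GMPPNP-loaded K-Ras G12C and 50 nM BRAF RBD; IC50 reported.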

KRAS G12V, sequence (P01116 1-169 isoform P01116-2 G12V limits assumed): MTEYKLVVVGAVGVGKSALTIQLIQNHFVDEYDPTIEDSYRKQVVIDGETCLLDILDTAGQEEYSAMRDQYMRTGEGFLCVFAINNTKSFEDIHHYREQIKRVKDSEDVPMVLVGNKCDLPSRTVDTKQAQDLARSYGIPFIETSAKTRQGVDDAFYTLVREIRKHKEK
KRAS G12V, sequence (P62937 whole entry): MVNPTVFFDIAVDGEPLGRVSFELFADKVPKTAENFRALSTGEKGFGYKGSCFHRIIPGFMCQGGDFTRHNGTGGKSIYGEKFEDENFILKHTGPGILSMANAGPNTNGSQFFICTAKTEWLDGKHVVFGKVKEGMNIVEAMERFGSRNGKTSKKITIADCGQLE
NRAS Q61K, sequence (P01111 whole entry Q61K): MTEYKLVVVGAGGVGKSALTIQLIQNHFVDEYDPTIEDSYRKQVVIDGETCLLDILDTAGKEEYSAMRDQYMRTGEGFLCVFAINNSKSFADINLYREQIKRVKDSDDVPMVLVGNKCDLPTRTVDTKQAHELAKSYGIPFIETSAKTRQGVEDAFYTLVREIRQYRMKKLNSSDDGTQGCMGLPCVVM
NRAS Q61K, sequence (P62937 whole entry): as the sequence (P62937 whole entry) above
KRAS G12D, sequence (P01116 1-169 isoform P01116-2 G12D limits assumed): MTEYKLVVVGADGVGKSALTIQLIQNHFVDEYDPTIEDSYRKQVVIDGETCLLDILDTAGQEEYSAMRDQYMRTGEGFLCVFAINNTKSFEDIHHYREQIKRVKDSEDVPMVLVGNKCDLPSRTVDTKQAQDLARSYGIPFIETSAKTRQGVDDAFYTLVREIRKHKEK
KRAS G12D, sequence (P62937 whole entry): as the sequence (P62937 whole entry) above
KRAS G12C, sequence (P01116 1-169 isoform P01116-2 G12C limits assumed): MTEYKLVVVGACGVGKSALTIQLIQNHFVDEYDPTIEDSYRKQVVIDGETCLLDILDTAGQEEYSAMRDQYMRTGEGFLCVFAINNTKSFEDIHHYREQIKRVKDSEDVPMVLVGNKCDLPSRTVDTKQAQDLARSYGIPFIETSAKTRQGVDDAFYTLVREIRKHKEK
KRAS G12C, sequence (P62937 whole entry): as the sequence (P62937 whole entry) above
KRAS Q61H, sequence (P01116 1-169 isoform P01116-2 Q61H limits assumed): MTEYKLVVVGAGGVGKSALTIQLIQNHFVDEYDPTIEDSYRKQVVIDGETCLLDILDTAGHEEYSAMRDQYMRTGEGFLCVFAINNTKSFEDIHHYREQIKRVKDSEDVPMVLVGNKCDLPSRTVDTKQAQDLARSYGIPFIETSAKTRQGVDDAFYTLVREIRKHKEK
KRAS Q61H, sequence (P62937 whole entry): as the sequence (P62937 whole entry) above
NRAS G12C, sequence (P01111 whole entry G12C): as the sequence (P01111 whole entry Q61K) above, with G12C, K61Q counted along it
NRAS G12C, sequence (P62937 whole entry): as the sequence (P62937 whole entry) above
KRAS G13C, sequence (P01116 1-169 isoform P01116-2 G13C limits assumed): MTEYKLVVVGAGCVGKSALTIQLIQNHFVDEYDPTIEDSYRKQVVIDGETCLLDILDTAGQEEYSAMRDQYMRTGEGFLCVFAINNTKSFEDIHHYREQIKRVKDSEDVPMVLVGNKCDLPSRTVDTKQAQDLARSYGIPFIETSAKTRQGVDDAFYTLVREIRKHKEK
KRAS G13C, sequence (P62937 whole entry): as the sequence (P62937 whole entry) above
KRAS WT, sequence (P01116 1-169 isoform P01116-2 limits assumed): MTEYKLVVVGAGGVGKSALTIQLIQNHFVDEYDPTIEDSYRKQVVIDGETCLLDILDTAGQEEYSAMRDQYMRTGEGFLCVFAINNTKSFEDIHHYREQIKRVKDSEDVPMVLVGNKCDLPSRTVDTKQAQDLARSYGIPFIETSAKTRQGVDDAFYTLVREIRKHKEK
KRAS WT, sequence (P62937 whole entry): as the sequence (P62937 whole entry) above
KRAS G13D, sequence (P01116 1-169 isoform P01116-2 G13D limits assumed): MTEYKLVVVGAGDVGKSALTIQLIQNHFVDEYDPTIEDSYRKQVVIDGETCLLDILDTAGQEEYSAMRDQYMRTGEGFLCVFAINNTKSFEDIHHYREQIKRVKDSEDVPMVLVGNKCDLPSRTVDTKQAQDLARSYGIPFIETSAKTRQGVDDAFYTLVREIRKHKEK
KRAS G13D, sequence (P62937 whole entry): as the sequence (P62937 whole entry) above
NRAS Q61R, sequence (P01111 whole entry Q61R): as the sequence (P01111 whole entry Q61K) above, with K61R counted along it
NRAS Q61R, sequence (P62937 whole entry): as the sequence (P62937 whole entry) above
KRAS G12S, sequence (P01116 1-169 isoform P01116-2 G12S limits assumed): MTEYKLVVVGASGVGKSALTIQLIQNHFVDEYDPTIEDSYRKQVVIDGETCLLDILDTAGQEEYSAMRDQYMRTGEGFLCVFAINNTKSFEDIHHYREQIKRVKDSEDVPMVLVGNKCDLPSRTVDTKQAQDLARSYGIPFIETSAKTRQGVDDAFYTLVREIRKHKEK
KRAS G12S, sequence (P62937 whole entry): as the sequence (P62937 whole entry) above
NRAS WT, sequence (P01111 whole entry): as the sequence (P01111 whole entry Q61K) above, with K61Q counted along it
NRAS WT, sequence (P62937 whole entry): as the sequence (P62937 whole entry) above

CO[C@H]1C[C@@H]2CC[C@@H](C)[C@@](O)(O2)C(=O)C(=O)N2CCCC[C@H]2C(=O)O[C@H]([C@H](C)C[C@@H]2CC[C@@H](OC(=O)NCc3cnc(N4CCN(C(=O)CCOCCN5CCN(c6ncc(C(=O)N7CCc8cc(Cn9nc(-c%10cnc%11[nH]ccc%11c%10)c%10c(N)ncnc%109)ccc8C7)cn6)CC5)CC4)nc3)[C@H](OC)C2)CC(=O)[C@H](C)/C=C(\C)[C@@H](O)[C@@H](OC)C(=O)[C@H](C)C[C@H](C)/C=C/C=C/C=C/1C [Example 52]
IC50 [1]: ≤ 1 nM
IC50 [2]: ≤ 3.16 nM

CO[C@H]1C[C@@H]2CC[C@@H](C)[C@@](O)(O2)C(=O)C(=O)N2CCCC[C@H]2C(=O)O[C@H]([C@H](C)C[C@@H]2CC[C@@H](OC(=O)NCc3cnc(N4CCN(c5ncc(C(=O)N6CCN(c7ncc(C(=O)N8CCc9cc(Cn%10nc(-c%11cnc%12[nH]ccc%12c%11)c%11c(N)ncnc%11%10)ccc9C8)cn7)CC6)cn5)CC4)nc3)[C@H](OC)C2)CC(=O)[C@H](C)/C=C(\C)[C@@H](O)[C@@H](OC)C(=O)[C@H](C)C[C@H](C)/C=C/C=C/C=C/1C [Example 61]
IC50 [1]: ≤ 1 nM
IC50 [3]: > 1000 nM

CCn1c(-c2cccnc2[C@H](C)OC)c2c3cc(ccc31)-c1cc(O)cc(c1)C[C@H](NC(=O)[C@H](C(C)C)N(C)C(=O)CN(C)C(=O)[C@@H]1CN1C1COC1)C(=O)N1CCC[C@H](N1)C(=O)OCC(C)(C)C2 (stereo partly shown) [Example 276]
EC50 [4]: < 5000 nM
IC50 [5]: 1000 to 10000 nM
IC50 [6]: 10 to 100 nM
IC50 [7]: 10 to 100 nM
IC50 [8]: 10 to 100 nM
IC50 [9]: 10 to 100 nM
IC50 [10]: 10 to 100 nM
IC50 [11]: 10 to 100 nM
IC50 [12]: 10 to 100 nM
IC50 [13]: 10 to 100 nM
IC50 [14]: < 10 nM
IC50 [15]: 100 to 1000 nM
IC50 [16]: 100 to 1000 nM
IC50 [17]: 10 to 100 nM
IC50 [18]: 10 to 100 nM

CCn1c(-c2cccnc2[C@H](C)OC)c2c3cc(ccc31)-c1cc(O)cc(c1)C[C@H](NC(=O)[C@H](C(C)C)N(C)C(=O)CN(C)C(=O)[C@H]1CN1CC1COC1)C(=O)N1CCC[C@H](N1)C(=O)OCC(C)(C)C2 (stereo partly shown) [Example 277]
EC50 [4]: < 5000 nM
IC50 [5]: 100 to 1000 nM
IC50 [6]: 10 to 100 nM
IC50 [7]: 100 to 1000 nM
IC50 [8]: 10 to 100 nM
IC50 [9]: 100 to 1000 nM
IC50 [10]: 10 to 100 nM
IC50 [11]: 100 to 1000 nM
IC50 [12]: 10 to 100 nM
IC50 [13]: 100 to 1000 nM
IC50 [14]: 10 to 100 nM
IC50 [15]: 100 to 1000 nM
IC50 [16]: 1000 to 10000 nM
IC50 [17]: 100 to 1000 nM
IC50 [18]: 10 to 100 nM

— patent US20230233569A1 (Revolution Medicines, Inc., priority 2020, published 2023)
